As usually defined, the Kd is the equilibrium constant for the complex coming apart. Read a high Kd as a looser complex.

What all share (format): binding
Assay [1] deals with T1, p53 (Homo sapiens, UniProt P04637).
T1 construct: gene TP53
The assay is described as follows: SPR. On the technique in general: SPR reads the build-up and loss of mass on a sensor chip optically.

The target in assay [2] is T2, Transketolase (TKT) (Homo sapiens, UniProt P29401).
T2 sequence (P29401 1-623): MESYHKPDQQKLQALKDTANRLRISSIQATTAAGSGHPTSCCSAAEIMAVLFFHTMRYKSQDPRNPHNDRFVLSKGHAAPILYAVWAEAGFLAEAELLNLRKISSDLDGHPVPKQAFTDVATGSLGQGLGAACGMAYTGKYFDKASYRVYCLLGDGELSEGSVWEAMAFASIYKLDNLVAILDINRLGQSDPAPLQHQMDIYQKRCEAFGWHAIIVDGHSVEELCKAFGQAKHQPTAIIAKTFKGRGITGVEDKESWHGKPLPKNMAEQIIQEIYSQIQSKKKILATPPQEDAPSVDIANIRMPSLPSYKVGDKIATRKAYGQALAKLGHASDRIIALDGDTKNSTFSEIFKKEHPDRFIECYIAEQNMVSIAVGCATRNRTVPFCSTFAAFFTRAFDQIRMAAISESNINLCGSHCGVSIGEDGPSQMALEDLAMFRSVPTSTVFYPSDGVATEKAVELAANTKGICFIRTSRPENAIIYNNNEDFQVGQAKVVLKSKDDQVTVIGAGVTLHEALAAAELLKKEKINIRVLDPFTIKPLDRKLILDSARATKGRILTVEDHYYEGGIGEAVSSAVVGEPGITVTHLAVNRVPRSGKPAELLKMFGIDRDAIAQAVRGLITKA
Description: SPR (Biacore, TKT immobilised on HisCap chip); supported by DARTS, CETSA, TKT-column displacement and enzyme inhibition ([…] at […]). Set-up: Purified human TKT protein.

Assay [3] has as its target T2, Transketolase (TKT). Description: competitive displacement chromatography on TKT protein column. More on the design: TKT protein immobilised on silica column.

T1 sequence (P04637 whole entry): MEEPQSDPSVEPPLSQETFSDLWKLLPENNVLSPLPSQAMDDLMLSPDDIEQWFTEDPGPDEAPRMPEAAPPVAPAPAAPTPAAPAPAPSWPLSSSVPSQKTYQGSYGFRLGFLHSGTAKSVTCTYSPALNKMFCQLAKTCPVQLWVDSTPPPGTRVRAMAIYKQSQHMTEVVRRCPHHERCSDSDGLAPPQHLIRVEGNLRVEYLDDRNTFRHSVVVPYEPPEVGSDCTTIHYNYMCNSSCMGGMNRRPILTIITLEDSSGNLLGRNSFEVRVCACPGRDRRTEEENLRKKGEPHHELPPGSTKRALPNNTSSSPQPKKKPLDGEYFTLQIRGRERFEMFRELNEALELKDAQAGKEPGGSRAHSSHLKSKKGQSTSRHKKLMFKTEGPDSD

For the compound `COc1c(O)cc2oc(-c3ccccc3)cc(=O)c2c1O` [oroxylin A], the Kd in assay [1] is 70.7 µM; in assay [2], 11.9 ± 8.4 µM.
On to `Cc1ncc(C[n+]2csc(CCO)c2C)c(O)n1` [oxythiamine], for which, in assay [3], the “competitive displacement chromatography on TKT protein column” value is given as “retention time of oxythiamine was markedly decreased with the increased concentration of oroxylin A in mobile phase”.

Values taken from PMC9619225, “Novel transketolase inhibitor oroxylin A suppresses the non‐oxidative pentose phosphate pathway and hepatocellular carcinoma tumour growth in mice and patient‐derived organoids” (Clinical and Translational Medicine, 2022).
